# Patent publication US20240360082A1, “SUBSTITUTED PYRIDONE COMPOUNDS USEFUL TO TREAT ORTH[…]” (priority 2021, published 2024)
# Target: influenza A virus minigenome (PB2, PB1, PA, NP proteins) (UniProt P04665)
# Assay type: cell-based
# Details: read-out: RNP_ Hubei B IC50
# Chain of influenza A virus minigenome (PB2, PB1, PA, NP proteins) (P04665 whole entry): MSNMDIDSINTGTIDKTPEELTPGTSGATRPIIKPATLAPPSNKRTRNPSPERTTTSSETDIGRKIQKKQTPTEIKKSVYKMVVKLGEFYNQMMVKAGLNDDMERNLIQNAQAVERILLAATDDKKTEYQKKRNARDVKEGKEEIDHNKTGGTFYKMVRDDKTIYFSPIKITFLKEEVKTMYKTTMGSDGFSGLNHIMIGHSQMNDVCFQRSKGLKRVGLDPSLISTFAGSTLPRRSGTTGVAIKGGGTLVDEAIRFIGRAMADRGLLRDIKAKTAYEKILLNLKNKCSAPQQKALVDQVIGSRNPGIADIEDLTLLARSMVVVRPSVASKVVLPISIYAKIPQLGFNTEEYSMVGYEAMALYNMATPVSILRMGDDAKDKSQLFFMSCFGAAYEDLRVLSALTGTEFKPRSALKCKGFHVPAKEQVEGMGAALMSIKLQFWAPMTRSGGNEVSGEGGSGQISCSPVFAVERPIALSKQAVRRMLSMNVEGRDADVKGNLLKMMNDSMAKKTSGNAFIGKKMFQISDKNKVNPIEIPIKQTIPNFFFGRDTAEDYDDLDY
row,Compound,IC50
1,"COC[C@]1(C)COC[C@H](COc2ccc(-c3cc(C(N)=O)c(=O)[nH]c3C(F)(F)F)cc2)O1 [Example 407, 5-(4-(((2R,6R)-6-(methoxymethyl)-6-methyl-1,4-dioxan-2-yl)methoxy)phenyl)-2-oxo-6-(trifluoromethyl)-1,2-dihydropyridine-3-carboxamide]",5 to 10 µM
2,"COC[C@@]1(C)COC[C@H](COc2ccc(-c3cc(C(N)=O)c(=O)[nH]c3C(F)(F)F)cc2)O1 [Example 408, 5-(4-(((2R,6S)-6-(methoxymethyl)-6-methyl-1,4-dioxan-2-yl)methoxy)phenyl)-2-oxo-6-(trifluoromethyl)-1,2-dihydropyridine-3-carboxamide]",5 to 10 µM
3,"CN(C)C(=O)[C@@]1(C)COC[C@@H](COc2ccc(-c3cc(C(N)=O)c(=O)[nH]c3C(F)(F)F)cc2)O1 [Example 409, 5-(4-(((2S,6R)-6-(dimethylcarbamoyl)-6-methyl-1,4-dioxan-2-yl)methoxy)phenyl)-2-oxo-6-(trifluoromethyl)-1,2-dihydropyridine-3-carboxamide]",5 to 10 µM
4,"[2H]C([2H])([2H])OC[C@@]1(C)COC[C@@H](COc2ccc(-c3cc(C(N)=O)c(=O)[nH]c3C(F)(F)F)cc2)O1 [Example 410, 5-(4-(((2S,6S)-6-((methoxy-d3)methyl)-6-methyl-1,4-dioxan-2-yl)methoxy)phenyl)-2-oxo-6-(trifluoromethyl)-1,2-dihydropyridine-3-carboxamide]",5 to 10 µM
5,"C[C@]1(CC#N)COC[C@@H](COc2ccc(-c3cc(C(N)=O)c(=O)[nH]c3C(F)(F)F)cc2)O1 [Example 411, 5-(4-(((2S,6S)-6-(cyanomethyl)-6-methyl-1,4-dioxan-2-yl)methoxy)phenyl)-2-oxo-6-(trifluoromethyl)-1,2-dihydropyridine-3-carboxamide]",5 to 10 µM
6,"C[C@]1(CS(C)(=O)=O)COC[C@@H](COc2ccc(-c3cc(C(N)=O)c(=O)[nH]c3C(F)(F)F)cc2)O1 [Example 412, 5-(4-(((2S,6R)-6-methyl-6-((methylsulfonyl)methyl)-1,4-dioxan-2-yl)methoxy)phenyl)-2-oxo-6-(trifluoromethyl)-1,2-dihydropyridine-3-carboxamide]",5 to 10 µM
7,"C[C@]1(CS(=O)(=O)C2CC2)COC[C@@H](COc2ccc(-c3cc(C(N)=O)c(=O)[nH]c3C(F)(F)F)cc2)O1 [Example 413, 5-(4-(((2S,6R)-6-((cyclopropylsulfonyl)methyl)-6-methyl-1,4-dioxan-2-yl)methoxy)phenyl)-2-oxo-6-(trifluoromethyl)-1,2-dihydropyridine-3-carboxamide]",5 to 10 µM
8,"COCC1(COC)COC[C@@H](COc2ccc(-c3cc(C(N)=O)c(=O)[nH]c3C(F)(F)F)cc2)O1 [Example 414, (S)-5-(4-((6,6-bis(methoxymethyl)-1,4-dioxan-2-yl)methoxy)phenyl)-2-oxo-6-(trifluoromethyl)-1,2-dihydropyridine-3-carboxamide]",5 to 10 µM
9,"NC(=O)c1cc(-c2ccc(OC[C@@H]3COCC4(COC4)O3)cc2)c(C(F)(F)F)[nH]c1=O [Example 415, (S)-5-(4-((2,5,8-trioxaspiro[3.5]nonan-6-yl)methoxy)phenyl)-2-oxo-6-(trifluoromethyl)-1,2-dihydropyridine-3-carboxamide]",5 to 10 µM
10,"NC(=O)c1cc(-c2ccc(OC[C@@H]3COCC4(COCCOC4)O3)cc2)c(C(F)(F)F)[nH]c1=O [Example 416, (S)-5-(4-((1,4,8,11-tetraoxaspiro[5.6]dodecan-2-yl)methoxy)phenyl)-2-oxo-6-(trifluoromethyl)-1,2-dihydropyridine-3-carboxamide]",5 to 10 µM
11,"COC[C@@]1(CF)COC[C@@H](COc2ccc(-c3cc(C(N)=O)c(=O)[nH]c3C(F)(F)F)cc2)O1 [Example 417, 5-(4-(((2S,6S)-6-(fluoromethyl)-6-(methoxymethyl)-1,4-dioxan-2-yl)methoxy)phenyl)-2-oxo-6-(trifluoromethyl)-1,2-dihydropyridine-3-carboxamide]",5 to 10 µM
12,"COC[C@@]1(CCl)COC[C@@H](COc2ccc(-c3cc(C(N)=O)c(=O)[nH]c3C(F)(F)F)cc2)O1 [Example 418, 5-(4-(((2S,6S)-6-(chloromethyl)-6-(methoxymethyl)-1,4-dioxan-2-yl)methoxy)phenyl)-2-oxo-6-(trifluoromethyl)-1,2-dihydropyridine-3-carboxamide]",5 to 10 µM
13,"C[C@@]1(CF)COC[C@@H](COc2ccc(-c3cc(C(N)=O)c(=O)[nH]c3C(F)(F)F)cc2)O1 [Example 419, 5-(4-(((2S,6S)-6-(fluoromethyl)-6-methyl-1,4-dioxan-2-yl)methoxy)phenyl)-2-oxo-6-(trifluoromethyl)-1,2-dihydropyridine-3-carboxamide]",5 to 10 µM
14,"C[C@]1(CF)COC[C@@H](COc2ccc(-c3cc(C(N)=O)c(=O)[nH]c3C(F)(F)F)cc2)O1 [Example 420, 5-(4-(((2S,6R)-6-(fluoromethyl)-6-methyl-1,4-dioxan-2-yl)methoxy)phenyl)-2-oxo-6-(trifluoromethyl)-1,2-dihydropyridine-3-carboxamide]",5 to 10 µM
15,C[C@@]1(CN2CC(F)C2)COC[C@@H](COc2ccc(-c3cc(C(N)=O)c(=O)[nH]c3C(F)(F)F)cc2)O1 [Example 421],5 to 10 µM
16,"C[C@@]1(CN2CC(F)(F)C2)COC[C@@H](COc2ccc(-c3cc(C(N)=O)c(=O)[nH]c3C(F)(F)F)cc2)O1 [Example 422, 5-(4-(((2S,6R)-6-((3,3-difluoroazetidin-1-yl)methyl)-6-methyl-1,4-dioxan-2-yl)methoxy)phenyl)-2-oxo-6-(trifluoromethyl)-1,2-dihydropyridine-3-carboxamide]",5 to 10 µM
17,"CN(C)C[C@@]1(C)COC[C@@H](COc2ccc(-c3cc(C(N)=O)c(=O)[nH]c3C(F)(F)F)cc2)O1 [Example 423, 5-(4-(((2S,6S)-6-((dimethylamino)methyl)-6-methyl-1,4-dioxan-2-yl)methoxy)phenyl)-2-oxo-6-(trifluoromethyl)-1,2-dihydropyridine-3-carboxamide]",5 to 10 µM
18,"CN(C)C[C@]1(C)COC[C@@H](COc2ccc(-c3cc(C(N)=O)c(=O)[nH]c3C(F)(F)F)cc2)O1 [Example 424, 5-(4-(((2S,6R)-6-((dimethylamino)methyl)-6-methyl-1,4-dioxan-2-yl)methoxy)phenyl)-2-oxo-6-(trifluoromethyl)-1,2-dihydropyridine-3-carboxamide]",5 to 10 µM
19,"C[C@]1(COC(F)F)COC[C@@H](COc2ccc(-c3cc(C(N)=O)c(=O)[nH]c3C(F)(F)F)cc2)O1 [Example 425, 5-(4-(((2S,6R)-6-((difluoromethoxy)methyl)-6-methyl-1,4-dioxan-2-yl)methoxy)phenyl)-2-oxo-6-(trifluoromethyl)-1,2-dihydropyridine-3-carboxamide]",5 to 10 µM
20,"COCC[C@@]1(C)COC[C@@H](COc2ccc(-c3cc(C(N)=O)c(=O)[nH]c3C(F)(F)F)cc2)O1 [Example 426, 5-(4-(((2S,6S)-6-(2-methoxyethyl)-6-methyl-1,4-dioxan-2-yl)methoxy)phenyl)-2-oxo-6-(trifluoromethyl)-1,2-dihydropyridine-3-carboxamide]",5 to 10 µM
21,"C[C@]1(COC2COC2)COC[C@@H](COc2ccc(-c3cc(C(N)=O)c(=O)[nH]c3C(F)(F)F)cc2)O1 [Example 427, 5-(4-(((2S,6R)-6-methyl-6-((oxetan-3-yloxy)methyl)-1,4-dioxan-2-yl)methoxy)phenyl)-2-oxo-6-(trifluoromethyl)-1,2-dihydropyridine-3-carboxamide]",5 to 10 µM
22,"CCOC[C@@]1(C)COC[C@@H](COc2ccc(-c3cc(C(N)=O)c(=O)[nH]c3C(F)(F)F)cc2)O1 [Example 428, 5-(4-(((2S,6S)-6-(ethoxymethyl)-6-methyl-1,4-dioxan-2-yl)methoxy)phenyl)-2-oxo-6-(trifluoromethyl)-1,2-dihydropyridine-3-carboxamide]",5 to 10 µM
23,CC1(OC[C@@]2(C)COC[C@@H](COc3ccc(-c4cc(C(N)=O)c(=O)[nH]c4C(F)(F)F)cc3)O2)COC1 [Example 429],5 to 10 µM
24,"COCCOC[C@@]1(C)COC[C@@H](COc2ccc(-c3cc(C(N)=O)c(=O)[nH]c3C(F)(F)F)cc2)O1 [Example 430, 5-(4-(((2S,6S)-6-((2-methoxyethoxy)methyl)-6-methyl-1,4-dioxan-2-yl)methoxy)phenyl)-2-oxo-6-(trifluoromethyl)-1,2-dihydropyridine-3-carboxamide]",5 to 10 µM
25,"C[C@]1(COCC(F)F)COC[C@@H](COc2ccc(-c3cc(C(N)=O)c(=O)[nH]c3C(F)(F)F)cc2)O1 [Example 431, 5-(4-(((2S,6R)-6-((2,2-difluoroethoxy)methyl)-6-methyl-1,4-dioxan-2-yl)methoxy)phenyl)-2-oxo-6-(trifluoromethyl)-1,2-dihydropyridine-3-carboxamide]",5 to 10 µM
26,"C[C@]1(COCC(F)(F)F)COC[C@@H](COc2ccc(-c3cc(C(N)=O)c(=O)[nH]c3C(F)(F)F)cc2)O1 [Example 432, 5-(4-(((2S,6R)-6-methyl-6-((2,2,2-trifluoroethoxy)methyl)-1,4-dioxan-2-yl)methoxy)phenyl)-2-oxo-6-(trifluoromethyl)-1,2-dihydropyridine-3-carboxamide]",5 to 10 µM
27,"C[C@]1(CO)COC[C@@H](COc2ccc(-c3cc(C(N)=O)c(=O)[nH]c3C(F)(F)F)cc2)O1 [Example 433, 5-(4-(((2S,6S)-6-(hydroxymethyl)-6-methyl-1,4-dioxan-2-yl)methoxy)phenyl)-2-oxo-6-(trifluoromethyl)-1,2-dihydropyridine-3-carboxamide]",5 to 10 µM
28,"C[C@]1(CC(F)F)COC[C@@H](COc2ccc(-c3cc(C(N)=O)c(=O)[nH]c3C(F)(F)F)cc2)O1 [Example 434, 5-(4-(((2S,6S)-6-(2,2-difluoroethyl)-6-methyl-1,4-dioxan-2-yl)methoxy)phenyl)-2-oxo-6-(trifluoromethyl)-1,2-dihydropyridine-3-carboxamide]",5 to 10 µM
29,"C[C@]1(CCF)COC[C@@H](COc2ccc(-c3cc(C(N)=O)c(=O)[nH]c3C(F)(F)F)cc2)O1 [Example 435, 5-(4-(((2S,6S)-6-(2-fluoroethyl)-6-methyl-1,4-dioxan-2-yl)methoxy)phenyl)-2-oxo-6-(trifluoromethyl)-1,2-dihydropyridine-3-carboxamide]",5 to 10 µM
